According to patent publication US20040043959A1, “Combination therapies for treating methylthioadenosine phosphorylase deficient cells” (priority 2002, published 2004):

Molecular target: T1, Human MTAP (Homo sapiens, UniProt Q13126)
T1 construct: six-histidine tag (His6) (N); made in house; host or cells: E. coli BL21 DE3
T1 sequence (Q13126 1-283): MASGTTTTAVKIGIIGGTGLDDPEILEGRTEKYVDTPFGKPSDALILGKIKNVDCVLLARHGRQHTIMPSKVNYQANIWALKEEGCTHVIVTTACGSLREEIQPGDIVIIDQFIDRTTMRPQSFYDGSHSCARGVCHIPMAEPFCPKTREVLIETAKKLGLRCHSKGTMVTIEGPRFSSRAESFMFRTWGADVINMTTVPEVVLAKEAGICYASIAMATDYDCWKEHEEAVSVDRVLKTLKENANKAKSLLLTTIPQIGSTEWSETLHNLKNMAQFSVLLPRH
Assay: MTAP substrate assay, coupled spectrophotometric (adenine, xanthine oxidase)
Type: biochemical
Details: 2 nM MTAP; for activity at 50 µM: 10 min, read-out: MT-A—50: initial velocity as a percentage of the initial velocity with MTA as substrate; for activity at 50 µM / MT-A—50: initial velocity as a percentage of the initial velocity with MTA as substrate: compound 50 uM, relative to MTA at 50 uM; for MT-A—10: initial velocity as a percentage of the initial velocity with MTA as substrate: compound 10 uM, relative to MTA at 10 uM
Experimental: An enzymatic assay to determine the activity of MTAP against a given substrate was performed. Human MTAP containing an N-terminal six-histidine tag was expressed in E. coli BL21 DE3 cells. The protein was purified to homogeneity by Ni2+ affinity chromatography. Enzymatic activity was measured using a coupled spectrophotometric assay designed to monitor the reaction product adenine (Savarese, T. M., Crabtree, G. W., and Parks, R. E. Jr., (1980) Biochem. Pharmacol. 30, 189-199). Various concentrations of the indicated 5′-deoxymethylthio adenosine (MTA) or substrate were incubated in assay buffer (40 mM potassium phosphate buffer, 1 mM, and DTT 0.8 units/ml xanthine oxidase coupling enzyme) for 5 minutes at 37° C. The reaction was initiated by the addition of MTAP. The exact concentration of enzyme used varied for each substrate tested and ranged from 2 nM to 500 nM. Activity as a function of enzyme concentration was determined for each substrate tested to ensure that the appropriate enzyme concentration was used. Activity was detected by continuous monitoring of absorbance at 305 nm for 10 minutes (ΔE=15,500 M^−1).
Library compounds (10 and 50 uM) were tested using the assay described above with 2 nM MTAP enzyme. The resultant initial velocities are reported as a percentage of the initial velocity observed when MTA is the substrate. MTA controls, 10 and 50 uM concentrations, were run on each plate alongside the library compounds.

Row | Compound | activity at 50 µM | MT-A—10: initial velocity as a percentage of the initial velocity with MTA as substrate | MT-A—50: initial velocity as a percentage of the initial velocity with MTA as substrate
1 | Nc1ncnc2c1ncn2[C@@H]1O[C@H](CSc2ccccc2C2=NCCCN2)[C@@H](O)[C@H]1O [2(G)(1), (2R, 3R, 4S, 5S)-2-(6-amino-9H-purin-9-yl)-5-({[2-(1,4,5,6-tetrahydropyrimidin-2-yl)phenyl]thio}methyl)-tetrahydrofuran-3,4-diol] | 23% | 8% | –
2 | Nc1ccccc1SC[C@H]1O[C@@H](n2cnc3c(N)ncnc32)[C@H](O)[C@@H]1O [2(G)(2), (2R, 3R, 4S, 5S)-2-(6-amino-9H-purin-9-yl)-5-{[(2-amino-phenyl)thio]methyl}tetrahydrofuran-3,4-diol] | 5% | 3% | –
3 | Nc1nc(SC[C@H]2O[C@@H](n3cnc4c(N)ncnc43)[C@H](O)[C@@H]2O)c2[nH]cnc2n1 [2(G)(3), (2R, 3R, 4S, 5S)-2-(6-amino-9H-purin-9-yl)-5-{[(2-amino-7H-purin-6-yl)thio]methyl}tetrahydro-furan-3,4-diol] | 45% | 46% | –
4 | CCc1cnc(SC[C@H]2O[C@@H](n3cnc4c(N)ncnc43)[C@H](O)[C@@H]2O)[nH]c1=O [2(G)(4), 2-({[(2S, 3S, 4R, 5R)-5-(6-amino-9H-purin-9-yl)-dihydroxytetrahydrofuran-2-yl]methyl}thio)-5-ethylpyrimidin-4(3H)-one] | 49% | 38% | –
5 | Cn1nnnc1SC[C@H]1O[C@@H](n2cnc3c(N)ncnc32)[C@H](O)[C@@H]1O [2(G)(6), (2R, 3R, 4S, 5S)-2-(6-amino-9H-purin-9-yl)-5-{[(1-methyl-1H-tetrazol-5-yl)thio]methyl}tetra-hydrofuran-3,4-diol] | 47% | 46% | –
6 | CCCSc1ccc2[nH]c(SC[C@H]3O[C@@H](n4cnc5c(N)ncnc54)[C@H](O)[C@@H]3O)nc2c1 [2(G)(7), (2R, 3R, 4S, 5S)-2-(6-amino-9H-purin-9-yl)-5-({[5-(propylthio)-1H-benzimidazol-2-yl]thio}methyl)tetrahydro-furan-3,4-diol] | 0% | 3% | –
7 | Nc1ncnc2c1ncn2[C@@H]1O[C@H](CSc2ncccn2)[C@@H](O)[C@H]1O [2(G)(8), (2R, 3R, 4S, 5S)-2-(6-amino-9H-purin-9-yl)-5-[(pyrimidin-2-ylthio)methyl]tetrahydro-furan-3,4-diol] | 59% | 54% | –
8 | Nc1nnc(SC[C@H]2O[C@@H](n3cnc4c(N)ncnc43)[C@H](O)[C@@H]2O)s1 [2(G)(9), (2R, 3R, 4S, 5S)-2-(6-amino-9H-purin-9-yl)-5-{[(5-amino-1,3,4-thiadiazol-2-yl)thio]methyl}tetrahydro-furan-3,4-diol] | 47% | 34% | –
9 | Nc1ccc(SC[C@H]2O[C@@H](n3cnc4c(N)ncnc43)[C@H](O)[C@@H]2O)cc1 [2(G)(10), (2R, 3R, 4S, 5S)-2-(6-amino-9H-purin-9-yl)-5-{[(4-aminophenyl)thio]methyl]-tetrahydrofuran-3,4-diol] | 19% | 20% | –
10 | Nc1ncnc2c1ncn2[C@@H]1O[C@H](CSc2nc3cc(Cl)ccc3s2)[C@@H](O)[C@H]1O [2(G)(11), (2R, 3R, 4S, 5S)-2-(6-amino-9H-purin-9-yl)-5-{[(5-chloro-1,3-benzothiazol-2-yl)thio]methyl}tetrahydro-furan-3,4-diol] | 25% | 22% | –
11 | Nc1ncnc2c1ncn2[C@@H]1O[C@H](CSc2nc3ccccc3s2)[C@@H](O)[C@H]1O [2(G)(12), (2R, 3R, 4S, 5S)-2-(6-amino-9H-purin-9-yl)-5-[(1,3-benzothiazol-2-ylthio)methyl]tetrahydro-furan-3,4-diol] | 25% | 24% | –
12 | CC(=O)Nc1ccc(SC[C@H]2O[C@@H](n3cnc4c(N)ncnc43)[C@H](O)[C@@H]2O)cc1 [2(G)(13), N-[4-({[(2S, 3S, 4R, 5R)-5-(6-amino-9H-purin-9-yl)-dihydroxytetrahydro-furan-2-yl]methyl}thio)phenyl]acetamide] | – | 19% | 17%
13 | Nc1ncnc2c1ncn2[C@@H]1O[C@H](CSc2ccc(O)cc2)[C@@H](O)[C@H]1O [2(G)(14), (2R, 3R, 4S, 5S)-2-(6-amino-9H-purin-9-yl)-5-{[(4-hydroxyphenyl)-thio]-methyl}tetrahydrofuran-3,4-diol] | 51% | 16% | –
14 | Nc1ncnc2c1ncn2[C@@H]1O[C@H](CSc2ccc3ccccc3c2)[C@@H](O)[C@H]1O [2(G)(15)] | – | 29% | 25%
15 | COc1ccc(CSC[C@H]2O[C@@H](n3cnc4c(N)ncnc43)[C@H](O)[C@@H]2O)cc1 [2(G)(16), (2R, 3R, 4S, 5S)-2-(6-amino-9H-purin-9-yl)-5-{[(4-methoxybenzyl)-thio]methyl}tetrahydro-furan-3,4-diol] | 60% | 59% | –
16 | Nc1ncnc2c1ncn2[C@@H]1O[C@H](CSc2ccc(Br)cc2)[C@@H](O)[C@H]1O [2(G)(17), (2R, 3R, 4S, 5S)-2-(6-amino-9H-purin-9-yl)-5-{[(4-bromophenyl)-thio]methyl}tetrahydro-furan-3,4-diol] | 17% | 21% | –
17 | Nc1ncnc2c1ncn2[C@@H]1O[C@H](CSc2cccc3ccccc23)[C@@H](O)[C@H]1O [2(G)(18), (2R, 3R, 4S, 5S)-2-(6-amino-9H-purin-9-yl)-5-[(1-naphthylthio)methyl]tetrahydrofuran-3,4-diol] | 4% | 5% | –
18 | Nc1ncnc2c1ncn2[C@@H]1O[C@H](CSc2ccc(Cl)cc2)[C@@H](O)[C@H]1O [2(G)(19), (2R, 3R, 4S, 5S)-2-(6-amino-9H-purin-9-yl)-5-{[(4-chlorophenyl)thio]-methyl}tetrahydro-furan-3,4-diol] | 17% | 19% | –
19 | COC(=O)c1ccc(SC[C@H]2O[C@@H](n3cnc4c(N)ncnc43)[C@H](O)[C@@H]2O)cc1 [2(G)(20), methyl 4-({[(2S, 3S, 4R, 5R)-5-(6-amino-9H-purin-9-yl)-5-3,4-dihydroxytetrahydro-furan-2-yl]methyl}thio)benzoate] | 5% | 7% | –
20 | CC(C)(C)c1ccc(SC[C@H]2O[C@@H](n3cnc4c(N)ncnc43)[C@H](O)[C@@H]2O)cc1 [2(G)(21), (2R, 3R, 4S, 5S)-2-(6-amino-9H-purin-9-yl)-5-{[(4-tert-butylphenyl)thio]methyl}tetrahydrofuran-3,4-diol] | 9% | 12% | –
21 | Cc1cccc(C)c1SC[C@H]1O[C@@H](n2cnc3c(N)ncnc32)[C@H](O)[C@@H]1O [2(G)(22), (2R, 3R, 4S, 5S)-2-(6-amino-9H-purin-9-yl)-5-{[(2,6-dimethylphenyl)-thio]methyl}tetrahydro-furan-3,4-diol] | 15% | 3% | –
22 | Nc1ncnc2c1ncn2[C@@H]1O[C@H](CSc2ccc(F)cc2)[C@@H](O)[C@H]1O [2(G)(23), (2R, 3R, 4S, 5S)-2-(6-amino-9H-purin-9-yl)-5-{[(4-fluorophenyl)-thio]methyl}tetra-hydrafuran-3,4-diol] | 31% | 21% | –
23 | COc1ccc(OC)c(SC[C@H]2O[C@@H](n3cnc4c(N)ncnc43)[C@H](O)[C@@H]2O)c1 [2(G)(24), (2R, 3R, 4S, 5S)-2-(6-amino-9H-purin-9-yl)-5-{[(2,5-dimethoxy-phenyl)-thio]methyl}tetrahydrofuran-3,4-diol] | 23% | 4% | –
24 | COc1ccc(SC[C@H]2O[C@@H](n3cnc4c(N)ncnc43)[C@H](O)[C@@H]2O)cc1OC [2(G)(25), (2R, 3R, 4S, 5S)-2-(6-amino-9H-purin-9-yl)-5-{[(3,4-dimethoxyphenyl)-thio]methyl}tetrahydro-furan-3,4-diol] | 30% | 5% | –
